Where two headings read alike, the source gives them in different places. Bounds are passed on as bounds.

We go through four compounds from publication PMC9966845, “Targeting Siderophore-Mediated Iron Uptake in M. abscessus: A New Strategy to Limit the Virulence of Non-Tuberculous Mycobacteria” (Pharmaceutics, 2023).

One series relates to M. bovis BCG. The conditions noted are these: cited from earlier work.
For series [1], the target named is T1, Mab-SaS (Mycobacteroides abscessus, UniProt B1MAQ5). Put plainly: Mab-SaS inhibition, fluorimetric enzymatic assay. Type of series: biochemical, M. abscessus. The conditions noted are these: for remaining activity at 100 µM: 100 μM ligand concentration, read-out: %RA (residual enzymatic activity). As for the experimental part: The selected furan-based compounds were screened against Mab-SaS enzymatic activity at 100 µM (dissolved in a solution containing 10% DMSO). Assays were performed at subsaturating concentrations of chorismic acid (50 μM), as above. For the most promising compounds, the IC50 value was also determined.
T1 sequence (B1MAQ5 entry or part of it): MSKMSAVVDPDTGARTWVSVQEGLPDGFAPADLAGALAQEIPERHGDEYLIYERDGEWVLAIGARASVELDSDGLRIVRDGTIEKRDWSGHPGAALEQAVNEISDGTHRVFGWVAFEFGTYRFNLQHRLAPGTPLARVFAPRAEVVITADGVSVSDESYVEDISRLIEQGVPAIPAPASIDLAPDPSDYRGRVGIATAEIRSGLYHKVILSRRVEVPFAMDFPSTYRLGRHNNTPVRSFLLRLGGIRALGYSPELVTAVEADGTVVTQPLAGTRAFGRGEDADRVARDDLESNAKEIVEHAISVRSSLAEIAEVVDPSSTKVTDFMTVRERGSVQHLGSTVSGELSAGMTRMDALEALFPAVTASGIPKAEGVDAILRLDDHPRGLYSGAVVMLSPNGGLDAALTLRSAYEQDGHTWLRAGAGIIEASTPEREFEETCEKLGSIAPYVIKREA
To further verify the reliability of the inhibition results against Mab-SaS, we determined the IC50 of compound 1 in the presence of 0.1 mg/mL bovine serum albumin (BSA) or in the presence of 0.01% (v/v) Triton X-100 as a detergent. Moreover, to exclude an unspecific binding to cysteine residues, we also tested the IC50 with 100 μM of 1,4-dithio-DL-threitol (DTT).

Series [2] concerns the target T1, Mab-SaS. Put plainly: Grating-Coupled Interferometry (GCI) binding analysis. The arrangement: species or system M. abscessus. The following applies: 25 °C, 1:1 kinetic model. On the procedure: The binding affinity and ligand efficiency of the furan-based library was evaluated by Grating-Coupled Interferometry (GCI). The analyses were performed by the Creoptix WAVE system (Malvern Panalytical, Malvern, UK). Borate buffer (100 mM sodium borate pH 9.0, 1 M NaCl) was used for chip conditioning. Experiments were carried out by reversibly capturing His-tagged Mab-SaS (50 μg/mL in running buffer, i.e., PBS, 0.05% Tween 20, 0.5% DMSO) on 4PCP-NTA WAVE chips, according to the manufacturer’s instructions, at a density of 3000 pg/mm^2.
Regeneration-free injections of a 1:2 dilution series in the 500–3 μM range for each compound of the furan-based library in running buffer were performed at 25 °C, using a flow rate of 100 μL/min.
A dimethyl sulfoxide (DMSO) calibration curve was used for bulk correction, and blank injections for double referencing. Data were analyzed and corrected using the Creoptix WAVE control software (correction applied: X and Y offset; DMSO calibration; double referencing). The processed data were fitted using the “1:1” kinetic model of the WAVE control software. All the experiments were performed in triplicate. Descriptive Statistical Analysis, as implemented in Microsoft Office Excel 10 (Microsoft Corporation, Redmond, WA, USA), was employed to calculate the mean of the obtained values of kon, koff, and KD as a measure of central tendency; standard deviations of the former values were computed as a measure of dispersion.

The next series concerns Mab. Description: MIC evaluation by resazurin assay in iron-limiting conditions. Type of series: cell-based, M. abscessus. The following applies: Mycobacteroides abscessus, chelated Sauton's medium, highest concentration tested 500 μM, read-out: antimycobacterial activity (MIC). As for the experimental part: Exponentially growing primary cultures were diluted 1:10 in iron-depleted Sauton’s medium enriched with 10% OACD. The secondary Mab culture growing in iron-limiting conditions was then diluted to OD600 0.005 using iron-depleted Sauton’s medium. Each well of the 96-well plate was filled with 100 μL of the diluted cell suspension. For each plate, the first four wells of the first row were filled with the cellular suspension and no drug was added (negative control). The following four wells were filled with the cellular suspension and treated with the vehicle volume. The last four wells of the first row were filled with the cellular suspension and treated with 1 mg/mL Streptomycin (positive control). Only the first well of the other rows was filled with 200 μL of cell suspension. In this well, the highest concentration of compound 1 (500 µM) was added and then two-fold serially diluted. After 24 h of incubation at 37 °C, 10 μL/well of 0.01% resazurin was added. The plate was re-incubated at 37 °C for 24 h and then read out. Pink wells indicated bacterial viability, whereas wells with an unchanged blue color indicated cidality. The MIC was counted as the lowest compound concentration causing cidality.

Series [3] deals with C=C(O[C@@H]1C=C(C(=O)O)C=C[C@H]1O)C(=O)O. Put plainly: purified protein, by the assay type. The following applies: other: substrate of Mab-SaS, 37 °C, pH 7.5.
Setting [4] is: no additive, 50 μM chorismic acid, read-out: IC50.

With `O=C(O)c1ccc(-c2ccc(C(F)(F)F)cc2C(F)(F)F)o1` [Compound 1, 5-(2,4-bis(trifluoromethyl)phenyl)furan-2-carboxylic acid], in the series with M. bovis BCG, the “antimycobacterial activity on M. bovis BCG” value was 500 µM. Besides, the concentration for half-maximal inhibition (IC50) at Mab-SaS [1] (100 μM DTT in the reaction mixture, read-out: IC50 in the presence of DTT) came to 6.1 ± 1.42 µM; at Mab-SaS [1] (0.1 mg/mL bovine serum albumin (PAIN analysis), read-out: IC50 in the presence of BSA) it was 5.2 ± 0.68 µM; on Mab-SaS [1] (0.01% (v/v) Triton X-100 (PAIN analysis), read-out: IC50 in the presence of Triton X-100), 6.5 ± 0.56 µM; on Mab-SaS [1] (setting [4]), 5.3 ± 1.5 µM. Further, at Mab-SaS [1] (100 μM compound), at 100 µM the inhibition was 98.8%. Besides, the remaining activity at 100 µM at Mab-SaS [1] (50 μM chorismic acid) turned out to be 1.2 ± 2.8%. The same compound registered a Kd on Mab-SaS [2] of 6.11 ± 0.16 µM. On Mab-SaS [2], this compound gave an off-rate (koff) of 9.77e-05 s⁻¹. In addition, the on-rate constant (kon) on Mab-SaS [2] turned out to be 15.4 ± 5 M⁻¹ s⁻¹. Also, in the series on Mab, the minimum inhibitory concentration (MIC) was above 500 µM.
Consider `Nc1cc([N+](=O)[O-])ccc1-c1ccc(C(=O)O)o1` [Compound 2, 5-(2-amino-4-nitrophenyl)furan-2-carboxylic acid], for which, at Mab-SaS [1] (50 μM chorismic acid), the remaining activity at 100 µM was 2.3 ± 0.7%. For the same compound, at Mab-SaS [1] (setting [4]), the IC50 is 23.6 ± 1.8 µM. Further, at Mab-SaS [2], the equilibrium dissociation constant (Kd) was found to be 12.7 ± 3.32 µM, the koff is 0.00303 s⁻¹ and the kon came out at 244 ± 6200 M⁻¹ s⁻¹.
For `O=C(O)c1ccc(-c2cc(C(F)(F)F)cc(C(F)(F)F)c2)o1` [Compound 3, 5-(3,5-bis(trifluoromethyl)phenyl)furan-2-carboxylic acid], the remaining activity at 100 µM on Mab-SaS [1] (50 μM chorismic acid) was 15.6 ± 2.5%. For the same compound, the IC50 on Mab-SaS [1] (setting [4]) worked out at 29.5 ± 1.6 µM. In addition, at Mab-SaS [2], the dissociation constant Kd was 67.5 ± 9.51 µM, the koff was found to be 0.00675 ± 6.1e-07 s⁻¹ and the kon worked out at 100 ± 500 M⁻¹ s⁻¹.
Regarding “Mab-SaS (Mycobacteroides abscessus ATCC 19977)”, the Km in series [3] is reported as 58 µM.
